Reference: US20030187048A1, “Method for inhibiting skin lesion formation using histamine as the active ingredient” (priority 1991, published 2003)
Values joined by “and” are separate entries in the source; they are usually repeats but may differ in a detail not shown here. Equal entries are not always repeated. Where two headings read alike, the source gives them in different places.

How the values were obtained:
[1] = test system: thermal burn injuries; conditions: for Height in mm of Blister / Height in mm of Swelling of Soft Tissue Surrounding Burn Site / Subjective Evaluation of Tenderness on Palpations (rated 0 to 5) / Zone of Erythema Surrounding Burn Site (mm): per burn site
[2] = test system: aphthous stomatitis lesions (canker sores); conditions: for Mean percentage decay rates of lesions for each patient: standardized over 24 hour period
Protocol: Treatment consisted of topical application five times per day for a period of five days., with daily evaluation by the patient and clinician. Lesion decay rates (decrease in lesion size over time) of Groups C and E were grouped together and compared to Group B, the placebo Group.
Assignment of subjects within groups to the three concentrations was unknown to the investigator.
The decay rate was calculated by first computing the percentage decrease in size of the lesion over time and then standardizing the decay rate over an exact 24 hour period.

[3] = test system: Photodermatitis (second degree sunburn); conditions: for Avg blister/hr: from count at 65 hours; for Discomfort on Lotion or Gel Application / General Discomfort: scored 1 (none) to 5 (worst)
Protocol: Treatment consisted of topical application of all lotion or gel concentrations to their respective, randomly assigned quadrants ever 30 minutes for the first 2 hours following the irradiation period, followed by lotion or gel or applications every hour for four hours, then lotion or gel applications three times a day until 65 hours elapsed post 2-z irradiation. Photographs were taken during the treatment period and upon the formation of identifiable blisters, the numbers of blisters in each quadrant were recorded at three times during-the treatment period with cessation of lotion or gel application and data collection at the 65 hours point as exfoliation (peeling) of the outer layers of the epidermis began at 70 hours.
Subjective evaluation involved an estimate of pain/discomfort following lotion or gel application in each quadrant as well as a comparative general discomfort level for each quadrant during the treatment period. Pain/discomfort was scored from 1 (none) to 5 (worst).

[4] = test system: herpes zoster (shingles) lesions; conditions: for Burning score / Local pain score: […] IEP gel, scale 0 to 5
Protocol: The percent reduction in complete healing time as compared to a usual episode was evaluated comparing the two patients who received active gel concentrations to the two patients receiving placebo gel. […] Subjects were assigned randomly to one of two active ingredient levels being evaluated, 0.0% and 0.015% by weight of active ingredient.
Each patient was contacted weekly for his or her estimate of the symptomatic relief of 2 common symptoms associated with herpes zoster (shingles) as well as the patient's interpretation of total healing of the episode. In an attempt to quantify responses, patients were asked to rate each symptom on a scale of 0 to 5 with 0 representing no evidence of the symptom and 5 representing the worst or most prominent evidence of the symptom ever for the patient. Subject compliance with the study regimen and the use of other medications was also assessed.

[5] = test system: Allergic Conjunctivitis
Protocol: The composition of the present invention includes initial preparation of a gel base by adding 0.8% CARBOPOL 940, which is a vinyl polymer, to distilled water. This mixture was allowed to stand for several hours until the polymer was wetted and a gel was formed. This mixture then was blended by means of a ordinary high speed mixer, such as a Lightning Labmaster II until a homogenous mixture is formed. At this point, a neutralizing and emulsifying agent such as an amino alcohol was added, forming an emulsion. […] This composition then was applied topically to various types of lesions, as subsequently described. […] Propylparaben or methylparaben may be used as a preservative. For “unidose” dispensers containing only two to three drops, no preservatives are used, as it is known that preservatives in ophthalmic solutions frequently cause undesirable side effects. The term semi-synthetic water soluble polymer as used herein includes hydroxy methylcellulose or carboxy methylcellulose. Carbopol is widely available in different viscosities.
Treatment consisted of topical ophthalmic application of both ophthalmic solution concentrations to their randomly assigned patients 2 times a day for 5 days. […] Each patient was clinically evaluated at 48 hours and 120 hours following the initiation of treatment for 2 parameters of tissue damage associated with Allergic Conjunctivitis. In addition, each patient was asked to evaluate subjectively 3 symptoms associated with Allergic Conjunctivitis 48 hours and 120 hours after treatment initiation. The percent reduction from the initial presentation of each of the parameters of tissue damage and the initial presentation for each additional symptom evaluated was calculated from 48 and 120 hour post treatment initiation data.
Patients were randomly assigned to one of two active levels being evaluated.
Clinical evaluation was performed at 48 hours and 120 hours post treatment initiation. Each patient was asked to subjectively evaluate 3 additional symptoms associated with Allergic Conjunctivitis by rating each symptom on a scale of 0 to 5 with 0 representing no evidence of symptom and 5 representing the greatest evidence of the symptom ever by the patient. clinical evaluation of tissue damage parameters was also done using the same scale of 0 to 5.
Patient compliance with the treatment regimen and the use of other medications was also evaluated.

[6] = 0.0045% gel, from greatest value of that burn site
[7] = 0.009% gel, from greatest value of that burn site
[8] = 0.0045% IEP, lower right quadrant
[9] = 0.0067% IEP, upper left quadrant
[10] = 0.0067% ophth soln, 48 hrs, per patient
[11] = 0.0067% ophth soln, 120 hrs, per patient
[12] = 0.0067% ophth soln, scale 0 to 5, per patient

Question: How did the “Height in mm of Blister” value ([1]; 0.0045% gel, 3.5 hours) turn out when `NCCc1c[nH]cn1` [IEP, 1H-imidazole-4-ethanamine,phosphate] was run?
Answer: 3 mm and 2 mm

Question: What about the “Height in mm of Swelling of Soft Tissue Surrounding Burn Site” value ([1]; 0.0045% gel, 3.5 hours) of the same compound?
Answer: 1 mm

Question: And the “Subjective Evaluation of Tenderness on Palpations (rated 0 to 5)” value (shortened to “Subjective Evaluation of Tenderness”) ([1]; 0.0045% gel, 3.5 hours)?
Answer: 3 and 5

Question: What about the “Zone of Erythema Surrounding Burn Site (mm)” value ([1]; 0.0045% gel, 3.5 hours) of the same compound?
Answer: 8 mm and 4 mm

Question: What about the “Height in mm of Blister” value ([1]; 0.0045% gel, 8 hours) of the same compound?
Answer: 2.5 mm and 1.5 mm

Question: What about the “Height in mm of Swelling of Soft Tissue Surrounding Burn Site” value ([1]; 0.0045% gel, 8 hours) of the same compound?
Answer: 1 mm

Question: And the “Subjective Evaluation of Tenderness” value ([1]; 0.0045% gel, 8 hours)?
Answer: 2 and 4

Question: And the “Zone of Erythema Surrounding Burn Site (mm)” value ([1]; 0.0045% gel, 8 hours)?
Answer: 6 mm and 3 mm

Question: What about the “Height in mm of Blister” value ([1]; 0.0045% gel, 22 hours) of the same compound?
Answer: 1.5 mm and 1 mm

Question: What about the “Subjective Evaluation of Tenderness” value ([1]; 0.0045% gel, 22 hours) of the same compound?
Answer: 2 and 4

Question: What about the “% Reduction in Tissue Damage at 22 Hours: Height of Blister” value [1, 6] of the same compound?
Answer: 50.0%

Question: What about the “% Reduction in Tissue Damage at 22 Hours: Swelling of Surrounding Tissue” value [1, 6] of the same compound?
Answer: 100.0% and 50.0%

Question: What about the “% Reduction in Tissue Damage at 22 Hours: Zone of Erythema (mm)” value [1, 6] of the same compound?
Answer: 66.7% and 81.3%

Question: What about the “Height in mm of Blister” value ([1]; 0.009% gel, 3.5 hours) of the same compound?
Answer: 2 mm

Question: And the “Height in mm of Swelling of Soft Tissue Surrounding Burn Site” value ([1]; 0.009% gel, 3.5 hours)?
Answer: 1 mm

Question: What about the “Subjective Evaluation of Tenderness” value ([1]; 0.009% gel, 3.5 hours) of the same compound?
Answer: 2 and 3

Question: And the “Zone of Erythema Surrounding Burn Site (mm)” value ([1]; 0.009% gel, 3.5 hours)?
Answer: 6 mm and 4 mm

Question: And the “Height in mm of Blister” value ([1]; 0.009% gel, 8 hours)?
Answer: 1 mm

Question: And the “Height in mm of Swelling of Soft Tissue Surrounding Burn Site” value ([1]; 0.009% gel, 8 hours)?
Answer: 0 mm

Question: What about the “Subjective Evaluation of Tenderness” value ([1]; 0.009% gel, 8 hours) of the same compound?
Answer: 2

Question: And the “Zone of Erythema Surrounding Burn Site (mm)” value ([1]; 0.009% gel, 8 hours)?
Answer: 4 mm and 3 mm

Question: What about the “Height in mm of Swelling of Soft Tissue Surrounding Burn Site” value ([1]; 0.009% gel, 22 hours) of the same compound?
Answer: 0 mm

Question: What about the “Subjective Evaluation of Tenderness” value ([1]; 0.009% gel, 22 hours) of the same compound?
Answer: 1

Question: What about the “Zone of Erythema Surrounding Burn Site (mm)” value ([1]; 0.009% gel, 22 hours) of the same compound?
Answer: 2 mm

Question: And the “% Reduction in Tissue Damage at 22 Hours: Height of Blister” value [1, 7]?
Answer: 75.0% and 100.0%

Question: What about the “% Reduction in Tissue Damage at 22 Hours: Swelling of Surrounding Tissue” value [1, 7] of the same compound?
Answer: 100.0%

Question: And the “% Reduction in Tissue Damage at 22 Hours: Tenderness on Palpation” value [1, 7]?
Answer: 80.0%

Question: And the “% Reduction in Tissue Damage at 22 Hours: Zone of Erythema (mm)” value [1, 7]?
Answer: 77.8% and 75.0%

Question: And the “Difference in tissue damage parameters vs placebo” value ([1]; 0.009% vs placebo, p<.O1 for 3 of the 4 parameters, fourth p<0.05)?
Answer: highly significant

Question: And the “Untoward events or significant complications” value ([1]; in vivo)?
Answer: no untoward events or significant complications

Question: And the “Mean percentage decay rate of lesions, Conc. Mean” value ([2]; 0.0067% gel, 3 patients)?
Answer: 74.1%

Question: And the “Mean percentage decay rates of lesions for each patient” value ([2]; 0.0067% gel)?
Answer: 100.0% and 53.8% and 68.4%

Question: What about the “Mean percentage decay rate of lesions, Conc. Mean” value ([2]; 0.0275% gel, 2 patients) of the same compound?
Answer: 83.5%

Question: And the “Mean percentage decay rates of lesions for each patient” value ([2]; 0.0275% gel)?
Answer: 104.0% and 62.9%

Question: What about the “Reducing lesion size over time vs placebo (analysis of variance)” value ([2]; Groups C and E (0.0067%, 0.0275%) combined, p<.O1) of the same compound?
Answer: significantly more effective

Question: What about the “Untoward events or significant complications” value ([2]; in vivo) of the same compound?
Answer: No untoward events or significant complications

Question: What about the “Total # of blisters at 42 hrs” value [3, 8] of the same compound?
Answer: 7

Question: And the “Total # of blisters at 52 hrs” value [3, 8]?
Answer: 7

Question: What about the “Total # of blisters at 65 hrs” value [3, 8] of the same compound?
Answer: 14

Question: And the Avg blister/hr [3, 8]?
Answer: 0.215 blister/hr

Question: What about the “Discomfort on Lotion or Gel Application” value ([3]; 0.0045% lotion or gel) of the same compound?
Answer: 2

Question: What about the “General Discomfort” value ([3]; 0.0045% lotion or gel) of the same compound?
Answer: 1

Question: What about the “Total # of blisters at 52 hrs” value [3, 9] of the same compound?
Answer: 2

Question: What about the “Total # of blisters at 65 hrs” value [3, 9] of the same compound?
Answer: 10

Question: And the Avg blister/hr [3, 9]?
Answer: 0.154 blister/hr

Question: What about the “Total # of blisters at 42 hrs” value ([3]; 0.0067% IEP, upper left quadrant, hours post irradiation) of the same compound?
Answer: 2

Question: What about the “Discomfort on Lotion or Gel Application” value ([3]; 0.0067% lotion or gel) of the same compound?
Answer: 1

Question: What about the “General Discomfort” value ([3]; 0.0067% lotion or gel) of the same compound?
Answer: 1

Question: And the “Treatment effect vs placebo, total rate of blister formation” value ([3]; active lotion or gel (0.0045% and 0.0067% combined), p<0.05)?
Answer: statistically significant treatment effect

Question: What about the Untoward effects ([3]; in vivo) of the same compound?
Answer: no untoward effects

Question: And the Burning score ([4]; week 2)?
Answer: 3

Question: What about the Local pain score ([4]; week 2) of the same compound?
Answer: 2

Question: What about the Burning score ([4]; week 3) of the same compound?
Answer: 0

Question: And the Local pain score ([4]; week 3)?
Answer: 0

Question: What about the Burning score ([4]; week 4) of the same compound?
Answer: 0

Question: And the Local pain score ([4]; week 4)?
Answer: 0

Question: And the Burning score ([4]; week 5)?
Answer: 0

Question: And the Local pain score ([4]; week 5)?
Answer: 0

Question: And the “Difference in percent reduction in complete healing time vs placebo” value ([4]; […] gel, p<0.05)?
Answer: significant

Question: And the Untoward reactions ([4]; topical gel […], three times a day)?
Answer: no untoward reactions

Question: And the “Edema, Percent Reduction from Pre-Treatment Value” [5, 10]?
Answer: 66.67% and 50.0% and 100.0%

Question: And the “Itching, Percent Reduction from Pre-Treatment Value” [5, 10]?
Answer: 100.0% (2×) and 50.0%

Question: What about the “Level of Discomfort, Percent Reduction from Pre-Treatment Value” [5, 10] of the same compound?
Answer: 66.67% and 75.0% and 100.0%

Question: And the “Redness, Percent Reduction from Pre-Treatment Value” [5, 10]?
Answer: 66.67% (2×) and 75.0%

Question: And the “Tearing, Percent Reduction from Pre-Treatment Value” [5, 10]?
Answer: 100.0% and 50.0%

Question: And the “Edema, Percent Reduction from Pre-Treatment Value” [5, 11]?
Answer: 100.0%

Question: What about the “Itching, Percent Reduction from Pre-Treatment Value” [5, 11] of the same compound?
Answer: 100.0%

Question: And the “Level of Discomfort, Percent Reduction from Pre-Treatment Value” [5, 11]?
Answer: 66.7% and 100.0% (2×)

Question: And the “Redness, Percent Reduction from Pre-Treatment Value” [5, 11]?
Answer: 100.0% and 75.0% and 66.67%

Question: What about the “Tearing, Percent Reduction from Pre-Treatment Value” [5, 11] of the same compound?
Answer: 100.0% (2×) and 75.0%

Question: What about the “Conjunctival Injection or Redness, Value at 48 Hours” value [5, 12] of the same compound?
Answer: 1 (2×) and 3

Question: And the “Edema, Value at 120 Hours” value [5, 12]?
Answer: 0

Question: And the “Itching, Value at 120 Hours” value [5, 12]?
Answer: 0

Question: What about the “Difference in percent reduction of tissue damage parameters and symptoms vs placebo ophthalmic solution” value ([5]; 0.0067% ophthalmic solution) of the same compound?
Answer: either significant (p<0.05) or highly significant (p<.O1)

Question: What about the Untoward effects ([5]; in vivo) of the same compound?
Answer: no untoward effects
